Measurements from PMC4332533 (Neuropharmacology, 2014).
Values joined by “and” are separate entries in the source; they are usually repeats but may differ in a detail not shown here. Equal values may be shown once. Read-outs that look alike come from different tables or passages of the source.

Key:
[1] = molecular target: T1, α3S125Cβ2Q39C receptor (Rattus norvegicus, UniProt P04757+P12390, Q65C/S152C); assay: Disulfide cross-linking experiments; assay type: cell-based
[2] = molecular target: T2, α3Q37Cβ2A127C receptor (Rattus norvegicus, UniProt P04757+P12390, A153C/Q64C); assay: Disulfide cross-linking experiments; assay type: cell-based
[3] = molecular target: α3E173Cβ2R46C receptor (Rattus norvegicus, UniProt P04757+P12390, E200C/R46C); assay: Disulfide cross-linking experiments; assay type: cell-based
[4] = molecular target: T3, α3Y168Cβ2D190C receptor (Rattus norvegicus, UniProt P04757+P12390, D216C/Y195C); assay: Disulfide cross-linking experiments; assay type: cell-based
[5] = molecular target: T4, wild type α3β2 receptor (Rattus norvegicus, UniProt P04757+P12390); assay: Disulfide cross-linking experiments; assay type: cell-based; details: 5 min 4.4 mM H2O2 alone; 300 µM ACh ± 10 µM Mor
[6] = molecular target: T5, α3S125Cβ2 receptor (Rattus norvegicus, UniProt P04757+P12390, S152C); assay: Disulfide cross-linking experiments; assay type: cell-based; details: H2O2 oxidation treatment (Supplemental Fig. S3C)
[7] = molecular target: T3, α3Y168Cβ2D190C receptor; assay: Macroscopic evoked currents, two-electrode voltage-clamp, Xenopus laevis oocytes; assay type: cell-based
[8] = molecular target: T5, α3S125Cβ2 receptor; assay: as above; assay type: cell-based
[9] = molecular target: α3Y168Fβ2D190Q receptor (Rattus norvegicus, UniProt P04757+P12390, D216Q/Y195F); assay: as above; assay type: cell-based; details: mutation-modulator Ɽ from EC50s vs wild type
[10] = molecular target: α3β2A127Y receptor (Rattus norvegicus, UniProt P04757+P12390, A153Y); assay: as above; assay type: cell-based
[11] = molecular target: α3S125Yβ2W149A receptor (Rattus norvegicus, UniProt P04757+P12390, S152Y/W175A); assay: as above; assay type: cell-based
[12] = molecular target: T1, α3S125Cβ2Q39C receptor; assay: as above
[13] = molecular target: α3β2D190C receptor (Rattus norvegicus, UniProt P04757+P12390, D216C); assay: as above; assay type: cell-based; details: for potentiation of ACh-evoked currents: 10 µM modulator (Fig. 3B)
[14] = molecular target: α3β2A127C receptor (Rattus norvegicus, UniProt P04757+P12390, A153C); assay: as above; assay type: cell-based; details: mutation-modulator Ɽ from EC50s vs wild type; 10 µM Mor
[15] = molecular target: α3Y168Fβ2 receptor (Rattus norvegicus, UniProt P04757+P12390, Y195F); assay: as above; assay type: cell-based
[16] = molecular target: α3Q37Cβ2 receptor (Rattus norvegicus, UniProt P04757+P12390, Q64C); assay: as above; assay type: cell-based; details: mutation-modulator Ɽ from EC50s vs wild type; 10 µM Mor
[17] = molecular target: T4, wild type α3β2 receptor; assay: as above; assay type: cell-based; details: 10 µM Mor; 300 µM ACh; control measurement before oxidation (Fig. 2)
[18] = molecular target: α3β2Q39C receptor (Rattus norvegicus, UniProt P04757+P12390, Q65C); assay: as above; assay type: cell-based; details: mutation-modulator Ɽ from EC50s vs wild type; 10 µM Mor
[19] = system: α3β2W149A receptor; details: Mor alone; relative to saturating ACh; no Hill fit possible; cited from earlier work
[20] = molecular target: α3S125Yβ2A127Y receptor (Rattus norvegicus, UniProt P04757+P12390, A153Y/S152Y); assay: Macroscopic evoked currents, two-electrode voltage-clamp, Xenopus laevis oocytes; assay type: cell-based
[21] = molecular target: α3E173Aβ2R46V receptor (Rattus norvegicus, UniProt P04757+P12390, E200A/R46V); assay: as above; assay type: cell-based; details: mutation-modulator Ɽ from EC50s vs wild type; 10 µM Mor
[22] = molecular target: T2, α3Q37Cβ2A127C receptor; assay: as above; assay type: cell-based; details: mutation-modulator Ɽ from EC50s vs wild type; 10 µM Mor
[23] = molecular target: T4, wild type α3β2 receptor; details: Mor alone, cited from earlier work
[24] = molecular target: α3β2R46V receptor (Rattus norvegicus, UniProt P04757+P12390, R72V); assay: Macroscopic evoked currents, two-electrode voltage-clamp, Xenopus laevis oocytes; assay type: cell-based; details: Mor alone; relative to saturating ACh; no Hill fit possible
[25] = molecular target: α3S125Yβ2 receptor (Rattus norvegicus, UniProt P04757+P12390, S152Y); assay: as above
[26] = molecular target: α3β2D190Q receptor (Rattus norvegicus, UniProt P04757+P12390, D216Q); assay: as above; assay type: cell-based; details: mutation-modulator Ɽ from EC50s vs wild type
[27] = molecular target: α3E173Aβ2 receptor (Rattus norvegicus, UniProt P04757+P12390, E200A); assay: as above; assay type: cell-based
[28] = molecular target: α3Y168Cβ2 receptor (Rattus norvegicus, UniProt P04757+P12390, Y195C); assay: as above; assay type: cell-based; details: mutation-modulator Ɽ from EC50s vs wild type; 10 µM Oxa
[29] = Mor alone, relative to saturating ACh
[30] = mutation-modulator Ɽ from EC50s vs wild type, 10 µM Mor
[31] = 10 µM Mor, saturating nicotine, 10 µM epibatidine (Fig. 8)
[32] = mutation-modulator Ɽ from EC50s vs wild type, 10 µM Oxa

T4 sequence (P04757 26-499): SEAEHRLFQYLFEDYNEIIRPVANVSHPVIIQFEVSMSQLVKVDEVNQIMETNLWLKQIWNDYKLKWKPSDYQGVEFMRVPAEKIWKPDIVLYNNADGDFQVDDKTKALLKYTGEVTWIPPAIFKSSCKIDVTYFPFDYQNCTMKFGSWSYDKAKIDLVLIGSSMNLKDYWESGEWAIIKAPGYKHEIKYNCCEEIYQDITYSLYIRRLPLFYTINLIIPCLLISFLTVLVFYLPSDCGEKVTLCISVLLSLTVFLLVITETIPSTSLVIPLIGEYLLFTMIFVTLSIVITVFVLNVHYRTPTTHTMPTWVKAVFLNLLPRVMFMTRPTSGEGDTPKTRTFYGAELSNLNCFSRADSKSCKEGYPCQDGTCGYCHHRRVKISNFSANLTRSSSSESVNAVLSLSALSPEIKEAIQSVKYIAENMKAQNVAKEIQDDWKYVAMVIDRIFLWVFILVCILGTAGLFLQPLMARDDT
T4 sequence (P12390 25-500): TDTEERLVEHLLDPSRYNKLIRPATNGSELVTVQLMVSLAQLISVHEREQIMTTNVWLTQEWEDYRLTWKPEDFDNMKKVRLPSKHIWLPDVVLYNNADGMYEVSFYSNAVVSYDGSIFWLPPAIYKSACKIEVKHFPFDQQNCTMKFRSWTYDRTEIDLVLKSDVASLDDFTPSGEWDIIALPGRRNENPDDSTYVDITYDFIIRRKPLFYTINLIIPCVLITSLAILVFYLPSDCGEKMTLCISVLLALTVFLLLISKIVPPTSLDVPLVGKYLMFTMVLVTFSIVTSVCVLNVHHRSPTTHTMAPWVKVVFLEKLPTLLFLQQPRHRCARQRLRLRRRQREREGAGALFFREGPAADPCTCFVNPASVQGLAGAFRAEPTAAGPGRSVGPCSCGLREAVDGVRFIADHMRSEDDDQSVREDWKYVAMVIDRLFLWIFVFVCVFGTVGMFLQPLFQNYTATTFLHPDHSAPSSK
Chain of α3β2A127Y receptor (P04757 26-499): as the sequence (P04757 26-499) above
Chain of α3β2A127Y receptor (P12390 25-500 A153Y): as the sequence (P12390 25-500) above, with A129Y counted along it
Chain of α3β2D190C receptor (P04757 26-499): as the sequence (P04757 26-499) above
Chain of α3β2D190C receptor (P12390 25-500 D216C): as the sequence (P12390 25-500) above, with D192C counted along it
Chain of α3S125Yβ2 receptor (P04757 26-499 S152Y): as the sequence (P04757 26-499) above, with S127Y counted along it
Chain of α3S125Yβ2 receptor (P12390 25-500, stated change not applied): as the sequence (P12390 25-500) above
Chain of α3S125Yβ2W149A receptor (P04757 26-499 S152Y): as the sequence (P04757 26-499) above, with S127Y counted along it
Chain of α3S125Yβ2W149A receptor (P12390 25-500 W175A): as the sequence (P12390 25-500) above, with W151A counted along it
Chain of α3S125Yβ2A127Y receptor (P04757 26-499 S152Y): as the sequence (P04757 26-499) above, with S127Y counted along it
Chain of α3S125Yβ2A127Y receptor (P12390 25-500 A153Y): as the sequence (P12390 25-500) above, with A129Y counted along it
T3 sequence (P04757 26-499 Y195C): as the sequence (P04757 26-499) above, with Y170C counted along it
T3 sequence (P12390 25-500 D216C): as the sequence (P12390 25-500) above, with D192C counted along it
T2 sequence (P04757 26-499 Q64C): as the sequence (P04757 26-499) above, with Q39C counted along it
T2 sequence (P12390 25-500 A153C): as the sequence (P12390 25-500) above, with A129C counted along it
T5 sequence (P04757 26-499 S152C): as the sequence (P04757 26-499) above, with S127C counted along it
T5 sequence (P12390 25-500, stated change not applied): as the sequence (P12390 25-500) above
T1 sequence (P04757 26-499 S152C): as the sequence (P04757 26-499) above, with S127C counted along it
T1 sequence (P12390 25-500 Q65C): as the sequence (P12390 25-500) above, with Q41C counted along it
Chain of α3E173Aβ2 receptor (P04757 26-499 E200A): as the sequence (P04757 26-499) above, with E175A counted along it
Chain of α3E173Aβ2 receptor (P12390 25-500): as the sequence (P12390 25-500) above
Chain of α3E173Cβ2R46C receptor (P04757 26-499 E200C): as the sequence (P04757 26-499) above, with E175C counted along it
Chain of α3E173Cβ2R46C receptor (P12390 25-500 R46C): as the sequence (P12390 25-500) above, with R22C counted along it
Chain of α3Y168Fβ2 receptor (P04757 26-499 Y195F): as the sequence (P04757 26-499) above, with Y170F counted along it
Chain of α3Y168Fβ2 receptor (P12390 25-500): as the sequence (P12390 25-500) above
Chain of α3Y168Fβ2D190Q receptor (P04757 26-499 Y195F): as the sequence (P04757 26-499) above, with Y170F counted along it
Chain of α3Y168Fβ2D190Q receptor (P12390 25-500 D216Q): as the sequence (P12390 25-500) above, with D192Q counted along it
Chain of α3β2D190Q receptor (P04757 26-499): as the sequence (P04757 26-499) above
Chain of α3β2D190Q receptor (P12390 25-500 D216Q): as the sequence (P12390 25-500) above, with D192Q counted along it
Chain of α3E173Aβ2R46V receptor (P04757 26-499 E200A): as the sequence (P04757 26-499) above, with E175A counted along it
Chain of α3E173Aβ2R46V receptor (P12390 25-500 R46V): as the sequence (P12390 25-500) above, with R22V counted along it
Chain of α3β2Q39C receptor (P04757 26-499): as the sequence (P04757 26-499) above
Chain of α3β2Q39C receptor (P12390 25-500 Q65C): as the sequence (P12390 25-500) above, with Q41C counted along it
Chain of α3β2A127C receptor (P04757 26-499): as the sequence (P04757 26-499) above
Chain of α3β2A127C receptor (P12390 25-500 A153C): as the sequence (P12390 25-500) above, with A129C counted along it
Chain of α3β2R46V receptor (P04757 26-499): as the sequence (P04757 26-499) above
Chain of α3β2R46V receptor (P12390 25-500 R72V): as the sequence (P12390 25-500) above, with R48V counted along it
Chain of α3Y168Cβ2 receptor (P04757 26-499 Y195C): as the sequence (P04757 26-499) above, with Y170C counted along it
Chain of α3Y168Cβ2 receptor (P12390 25-500): as the sequence (P12390 25-500) above
Chain of α3Q37Cβ2 receptor (P04757 26-499 Q64C): as the sequence (P04757 26-499) above, with Q39C counted along it
Chain of α3Q37Cβ2 receptor (P12390 25-500): as the sequence (P12390 25-500) above

O[C@@H](CS)[C@@H](O)CS (racemic) [DTT, dithiothreitol]
reduction of the disulfide bond after oxidation ([1]; 40–100 µM DTT after H2O2 (Fig. 6)): effective resistance
reduction of the disulfide bond after oxidation ([2]; 40 µM DTT after oxidation (Fig. 7)): essentially resistant
change of currents upon reduction following oxidation ([3]; DTT after H2O2 (Supplemental Fig. S4)): did decrease currents, but not completely to the control level
reversal of oxidation-induced current decrease by reduction ([4]; subsequent DTT treatment (Supplemental Fig. S2B)): completely reversed

OO [H2O2]
decrease of currents evoked by ACh, ACh + Mor and Mor alone upon oxidation ([1]; 4.4 mM H2O2 alone, 300 µM ACh, 300 µM ACh + 10 µM Mor, 10 µM Mor (Fig. 6)): 62–89%
decrease of IACh upon oxidation ([1]; 5 min 4.4 mM H2O2 alone, current evoked by 300 µM ACh): 60%
decrease of IACh+Mor upon oxidation ([1]; 5 min 4.4 mM H2O2 alone, current evoked by 300 µM ACh + 10 µM Mor): 80% and 90%
change of currents evoked by ACh alone, ACh + Mor and Mor alone upon oxidation ([2]; 4.4 mM H2O2 alone or with 100 µM ACh + 10 µM Mor, 1 mM ACh, 10 µM Mor (Fig. 7)): all increased
change of currents upon oxidation ([3]; H2O2 alone (Supplemental Fig. S4)): significantly increased currents
reduction of evoked currents following oxidation ([4]; H2O2 treatment (abstract)): up to 50%
Ioxidation/Icontrol, final fraction of current remaining at long times ([4]; oxidation onset kinetics (Supplemental Fig. S2A)): 0.61 ± 0.05
effect of oxidizing treatment on evoked currents [5]: unaffected
change in evoked currents upon oxidation [6]: no changes

Cc1ccsc1C=CC1=NCCCN1C.O=C(O)C(O)C(O)C(=O)O [Mor, 1,4,5,6-tetrahydro-1-methyl-2-(2-[3-methyl-2-thienyl]ethenyl)pyrimidine, tartrate salt]
potentiation (IACh+Mor/IACh) ([7]; 10 µM Mor, 1 mM ACh, control measurement before oxidation (Fig. 2)): greater than 2.5 fold
R(mut-Mor) ([7]; Ɽ=EC50(WT,A)·EC50(mut,A+M)/EC50(WT,A+M)·EC50(mut,A), M = 10 µM Mor): 0.52
EC50 [8]: 92 ± 33 µM
nH (Mor Activation) ([8]; Mor alone, Hill fit): 0.54 ± 0.11 [4]
Emax (Mor Activation) [8, 29]: 0.028 ± 0.006
R(mut-Mor) [8, 30]: 1.3
R(mut-Mor) ([9]; 10 µM Mor): 0.57
EC50 [10]: 4.8 ± 2.4 µM
response to Mor alone ([10]; 10 µM Mor alone (Fig. 8)): nearly negligible current
effect on ACh responses ([10]; 10 µM Mor, 300 µM ACh (Fig. 8)): modestly potentiated
effect on responses evoked by nicotine and epibatidine [10, 31]: inhibited
nH (Mor Activation) ([10]; Mor alone, Hill fit): 1.08 ± 0.40
Emax (Mor Activation) [10, 29]: 0.05 ± 0.01 [5]
R(mut-Mor) [10, 30]: 9.4
EC50 [11]: 25 ± 9 µM
nH (Mor Activation) ([11]; Mor alone, Hill fit): 1.01 ± 0.29 [5–6]
Emax (Mor Activation) [11, 29]: 0.21 ± 0.02
R(mut-Mor) [11, 30]: 7.2
EC50 [12]: 0.53 ± 0.21 µM
potentiation (IACh+Mor/IACh) ([12]; 10 µM Mor, 300 µM ACh, control measurement before oxidation (Fig. 2)): greater than 2.5 fold
nH (Mor Activation) ([12]; Mor alone, Hill fit): 0.92 ± 0.30 [4–8]
Emax (Mor Activation) [12, 29]: 1.00 ± 0.14
R(mut-Mor) [12, 30]: 4.5
potentiation of ACh-evoked currents [13]: eliminated
R(mut-Mor) [13, 30]: 10
R(mut-Mor) [14]: 3.3
decrease in EC50 for Mor modulation vs wild type ([15]; ACh + 10 µM Mor EC50 comparison, Table 1): 70 fold
R(mut-Mor) [16]: 5.3
potentiation (IACh+Mor/IACh) [17]: greater than 2.5 fold
R(mut-Mor) [18]: 0.10
Emax (Mor Activation) [19]: 0.015 ± 0.004 [3]
EC50 [20]: 1.9 ± 0.2 µM
effect on ACh responses ([20]; 10 µM Mor, 300 µM ACh (Fig. 8)): modestly potentiated
effect on responses evoked by nicotine and epibatidine [20, 31]: inhibited
nH (Mor Activation) ([20]; Mor alone, Hill fit): 3.18 ± 0.63
Emax (Mor Activation) [20, 29]: 0.16 ± 0.01 [3]
R(mut-Mor) [20, 30]: 1.2
Ω (Mor alone activation) ([20]; thermodynamic cycle α3S125Y-β2A127Y from Mor alone EC50s): 3.4
R(mut-Mor) [21]: 9.0
R(mut-Mor) [22]: 1.7
nH (Mor Activation) ([23]; Hill fit): 3.1 ± 1.6
Emax (Mor Activation) ([23]; relative to saturating ACh): 0.2 and 0.20 ± 0.04
EC50 ([23]; read-out: EC50 (Mor Activation), Hill fit): 20 ± 2 µM
Emax (Mor Activation) [24]: 0.03 ± 0.01 [7]
EC50 [25]: 2.3 ± 0.7 µM
response to Mor alone ([25]; 10 µM Mor alone (Fig. 8, Fig. 5A)): full agonist
effect on ACh responses ([25]; 10 µM Mor, 300 µM ACh (Fig. 8)): modestly potentiated
effect on responses evoked by nicotine and epibatidine [25, 31]: inhibited
decrease in EC50 for Mor modulation vs wild type ([25]; ACh + 10 µM Mor EC50 comparison): 1000 fold
Emax (Mor Activation) [25, 29]: 1.7 and 1.69 ± 0.27
R(mut-Mor) [25, 30]: 0.0076
R(mut-Mor) ([26]; 10 µM Mor): 7.1
Emax (Mor Activation) ([27]; Mor alone, relative to saturating ACh, no Hill fit possible): 0.16 ± 0.01 [4]
R(mut-Mor) [27, 30]: 1.4

CN1CCCN=C1/C=C/c1cccc(O)c1 [Oxa, 1-methyl-2-(3-hydroxyphenylethenyl)-1,4,5,6-tetrahydropyrimidine with 4,4’-methylenebis(3-hydroxy-2-naphthoic acid)]
R(mut-Oxa) [7, 32]: 1.9
R(mut-Oxa) ([9]; 10 µM Oxa): 1.6
potentiation of ACh-evoked currents [13]: eliminated
R(mut-Oxa) [13, 32]: 19
R(mut-Oxa) [15, 32]: 1.5
R(mut-Oxa) [28]: 1.2
R(mut-Oxa) ([26]; 10 µM Oxa): 19

Clc1ccc(C2CC3CCC2N3)cn1 (stereo not shown) [epibatidine]
efficacy compared with ACh ([25]; saturating agonist (Fig. 8)): greater efficacy

CN1CCC[C@H]1c1cccnc1 [nicotine]
efficacy compared with ACh [25]: greater efficacy
